Data taken from patent US7169792B2, “Method of treating bacterial infections using gemifloxacin or a salt thereof and a β-lactam antibiotic” (priority 2002, dated 2007).
Like-named read-outs stand apart in the source and are kept apart here. One block for each compound: values may come before it.

Experiments:
E. coli ATCC 25922 = assay: checkerboard titration, gemifloxacin and cefaclor (MIC, FIC); format: cell-based, Escherichia coli
Description: (§1) Checkerboard microtitre broth dilution plates were prepared using the Hamilton MicroLab AT Plus system (Reno, Nev.). Two-fold serial dilutions (50 μl) of cefotaxime were made in columns 1 through 11 of a microtitre plate. Two-fold serial dilutions of gemifloxacin were prepared manually and the MicroLab AT Plus was used to dispense 25 μl of gemifloxacin at each concentration into rows A through G of the microtitre plate. The concentration range tested varied for each drug/organism combination to encompass the MIC endpoints of the individual components. Column 12 contained two fold serial dilutions of gemifloxacin only, and row H contained two fold serial dilutions of cefotaxie only. The last well (H) in column 12 was used as a positive growth control well, containing only medium and test isolate.
(§2) The bacteria were diluted to a 0.5 McFarland standard and then further diluted 1/50. Each well was inoculated with 25 μl of the isolate to give a final inoculum density of approximately 5×10^5 cfu/ml. The MicroLab AT Plus 2 was used to add the inoculum to the microtitre plates. After inoculation, the plates were covered with a 96 well microtitre plate lid and incubated at 35° C. in ambient air for 20–24 hours. A 10 μl aliquot of the inoculum was plated on trypticase soy agar containing 5% sheep blood to determine the purity of the final test inoculum.
(§3) Following incubation, a microtitre mirror reader (Cooke Instruments Ltd., England) was used to assist in determining the microdilution MIC endpoints. The MIC was determined as the lowest concentration of compound that inhibited visible growth of the organism.
(§4) The Fractional Inhibitory Concentrations (FICs) were calculated using the following formula: (A)/(MICA)+(B)/(MICB)=FICA+FICB=FICIndex wherein: • A is the MIC of drug A in the presence of drug B • B is the MIC of drug B in the presence of drug A • MIC A is the MIC of the organism to drug A alone • MIC B is the MIC of the organism to drug B alone • FIC A is the fractional inhibitory concentration of drug A • FIC B is the fractional inhibitory concentration of drug B
(§5) The FIC indices were interpreted using the following criteria: • ≦0.5=Synergy • >0.5–1=Additive • >1–2=Indifference • >2=Antagonism
3) E. coli ATCC 25922 was obtained from the SmithKline Beecham Anti-Infectives Research Culture Collection and stored at −80° C. in 10% glycerol. Before testing, the isolate was passaged onto agar plates (trypticase soy agar containing 5% sheeps blood) from the frozen stock for two consecutive days. […]
The combined effect of gemifloxacin and cefaclor was investigated in E. coli ATCC 25922 by using the checkerboard titration method described in Example 1. FIC Indices were calculated and interpreted as in Example 1.

S. saprophyticus 662 = assay: checkerboard titration, gemifloxacin and amoxicillin (MIC, FIC); format: cell-based, Staphylococcus saprophyticus
Description: The concentration range tested varied for each drug/organism combination to encompass the MIC endpoints of the individual components. […] The last well (H) in column 12 was used as a positive growth control well, containing only medium and test isolate.
The bacteria were diluted to a 0.5 McFarland standard and then further diluted 1/50. Each well was inoculated with 25 μl of the isolate to give a final inoculum density of approximately 5×10^5 cfu/ml. […] After inoculation, the plates were covered with a 96 well microtitre plate lid and incubated at 35° C. in ambient air for 20–24 hours. A 10 μl aliquot of the inoculum was plated on trypticase soy agar containing 5% sheep blood to determine the purity of the final test inoculum.
2) S. saprophyticus 662 was obtained from the SmithKline Beecham Anti-Infectives Research Culture Collection and stored at −80° C. in 10% glycerol. Before testing, the isolate was passaged onto agar plates (trypticase soy agar containing 5% sheeps blood) from the frozen stock for two consecutive days. Cation adjusted Mueller Hinton broth (BBL, Cockeysville, Md.) was used for the isolate.
The combined effect of gemifloxacin and amoxicillin was investigated in S. saprophyticus 662 by using the checkerboard titration method described in Example 1.

E. faecalis ATCC 29212 = assay: checkerboard titration, gemifloxacin and cefotaxime (MIC, FIC); format: cell-based, Enterococcus faecalis
Description: 1) The combined effect of gemifloxacin and cefotaxime was investigated in E. faecalis by using a checkerboard titration method. Evaluation for synergistic activity was carried out by calculation of fractional inhibitory concentrations (FICs) according to the method of Eliopoulos et al (1996, Antimicrobial Combinations, Antibiotics in Laboratory Medicine, Victor Lorian, 4th Edition, pp 337–338, Baltimore, Md., Williams and Wilkins).
E. faecalis ATCC 29212 was obtained from the SmithKline Beecham Anti-Infectives Research Culture Collection and stored at −80° C. in 10% glycerol. Before testing, the isolate was passaged onto agar plates (trypticase soy agar containing 5% sheeps blood) from the frozen stock for two consecutive days. Cation adjusted Mueller Hinton broth (BBL, Cockeysville, Md.) was used for the isolate.
as §1, §2, §3, §4, §5

[1] = test system: clinically isolated P. aeruginosa; assay: checkerboard titration, gemifloxacin or ciprofloxacin with ceftazidime, 27 clinical isolates (Example 4); format: cell-based, Pseudomonas aeruginosa; settings: for FICB: FIC of ceftazidime; for MIC: Pseudomonas aeruginosa
Description: The test organisms were clinical isolates collected in Korea. Organisms were frozen at −70 C prior to testing. Testing was done by the checkerboard method in 96-well plates using Mueller-Hinton broth. […] Ceftazidime was also dispensed alone in the first row in the first column. Test strains of P. aeruginosa were grown for 18 h in Mueller-Hinton broth, and then these overnight cultures were diluted with the same fresh medium to the density of approximately 10^7 CFU/mL. The bacterial concentrations were determined by measuring optical density or turbidity of the suspension and were verified by standard colony counts on antibiotic-free agar plates. A diluted bacterial solution was applied to 96-well plates containing serially diluted antimicrobial agents to yield 10^4 CFU per spot. Plates were incubated aerobically overnight.
(§6) Minimal inhibitory concentrations (MICs) for each separate drug were determined. For wells along the growth-no growth interface, synergy was determined by calculating the Fractional Inhibitory Concentration (FIC) index. The Fractional Inhibitory Concentration (FIC) indices were calculated using the following formula: FICindex=FICA+FICB=[A]/MICA+[B]/MICB • Wherein: • FICA(or B), is the FIC of drug A (or B) MICA (or B) is the MIC of the organism to drug A (or B) • A (or B) is concentration of drug A (or B) that is the lowest inhibitory concentration
(§7) The FIC indices were interpreted using the following criteria: • ≦0.5=Synergy • >0.5–1.0=Additive • >1.0–4.0=Indifference • >4.0=Antagonism

[2] = test system: clinically isolated P. aeruginosa strains; assay: checkerboard method, gemifloxacin or ciprofloxacin with ceftazidime, 6 clinical isolates (Example 5); format: cell-based, Pseudomonas aeruginosa; settings: for FICB: FIC of ceftazidime; for MIC: Pseudomonas aeruginosa
Description: as §6, §7
The test organisms were clinical isolates collected in Korea. Organisms were frozen at −70 C. prior to testing. […] Gemifloxacin or ciprofloxacin solution was dispensed alone in the first row and combined with ceftazidime in the remaining rows. Ceftazidime as also dispensed alone in the first row in the first column. Test strains of P. aeruginosa were grown for 18 h in Mueller-Hinton broth, and then these overnight cultures were diluted with the same fresh medium to the density of approximately 10^7 CFU/mL. The bacterial concentrations were determined by measuring optical density or turbidity of the suspension and were verified by standard colony counts on antibiotic-free agar plates. A diluted bacterial solution was applied to 96-well plates containing serially diluted antimicrobial agents to yield 5×10^5 CFU/mL. Plates were incubated at 35 C for 18 hours.
MICs for each separate drug were determined, and for wells along the growth-no growth interface, synergy was determined by calculating FIC Indices as in Example 4. FIC Indices were calculated and interpreted as in Example 4.

[3] = drug alone, no unit in this line (other lines μg/ml)

- MIC (E. coli ATCC 25922; Escherichia coli, ATCC25922, in presence of gemifloxacin 0.002 μg/ml, read-out: cefaclor MIC): 1 µg/mL
- cefaclor MIC (E. coli ATCC 25922; [3]): 4
SMILES: N[C@@H](C(=O)N[C@@H]1C(=O)N2C(C(=O)O)=C(Cl)CS[C@H]12)c1ccccc1 [cefaclor]

- MIC (S. saprophyticus 662; Staphylococcus saprophyticus, 662, in presence of gemifloxacin 0.004 μg/ml, read-out: amoxicillin MIC): 0.125 µg/mL
SMILES: CC1(C)S[C@@H]2[C@H](NC(=O)[C@H](N)c3ccc(O)cc3)C(=O)N2[C@H]1C(=O)O [amoxicillin]

- MIC (E. faecalis ATCC 29212; Enterococcus faecalis, ATCC29212, in presence of gemifloxacin 0.008 μg/ml, read-out: cefotaxime MIC): 16 µg/mL
- cefotaxime MIC (E. faecalis ATCC 29212; [3]): 256
- amoxicillin MIC (S. saprophyticus 662; [3]): 0.5
SMILES: CO/N=C(\C(=O)N[C@@H]1C(=O)N2C(C(=O)O)=C(COC(C)=O)CS[C@H]12)c1csc(N)n1 [cefotaxime]

- MIC ([1]; P. aeruginosa 6003, drug alone, read-out: ceftazidime MIC): 4 µg/mL
- MIC ([1]; P. aeruginosa 6003, in combination with gemifloxacin, read-out: Cceftazidime MIC): 1 µg/mL
- MIC ([1]; P. aeruginosa 6021, drug alone, read-out: ceftazidime MIC): 4 µg/mL
- MIC ([1]; P. aeruginosa 6021, in combination with gemifloxacin, read-out: Cceftazidime MIC): 1 µg/mL
- MIC ([1]; P. aeruginosa 6030, drug alone, read-out: ceftazidime MIC): 4 µg/mL
- MIC ([1]; P. aeruginosa 6030, in combination with gemifloxacin, read-out: Cceftazidime MIC): 1 µg/mL
- MIC ([1]; P. aeruginosa 6045, drug alone, read-out: ceftazidime MIC): 64 µg/mL
- MIC ([1]; P. aeruginosa 6045, in combination with gemifloxacin, read-out: Cceftazidime MIC): 8 µg/mL
- MIC ([1]; P. aeruginosa 6047, drug alone, read-out: ceftazidime MIC): 64 µg/mL
- MIC ([1]; P. aeruginosa 6047, in combination with gemifloxacin, read-out: Cceftazidime MIC): 2 µg/mL
- MIC ([1]; P. aeruginosa 6113, drug alone, read-out: ceftazidime MIC): 8 µg/mL
- MIC ([1]; P. aeruginosa 6113, in combination with gemifloxacin, read-out: Cceftazidime MIC): 2 µg/mL
- MIC ([1]; P. aeruginosa 6123, drug alone, read-out: ceftazidime MIC): 4 µg/mL
- MIC ([1]; P. aeruginosa 6123, in combination with gemifloxacin, read-out: Cceftazidime MIC): 1 µg/mL
- MIC ([1]; P. aeruginosa 6173, drug alone, read-out: ceftazidime MIC): 4 µg/mL
- MIC ([1]; P. aeruginosa 6173, in combination with gemifloxacin, read-out: Cceftazidime MIC): 1 µg/mL
- MIC ([1]; P. aeruginosa P032, drug alone, read-out: ceftazidime MIC): 4 µg/mL
- MIC ([1]; P. aeruginosa P032, in combination with gemifloxacin, read-out: Cceftazidime MIC): 1 µg/mL
- MIC ([1]; P. aeruginosa P036, drug alone, read-out: ceftazidime MIC): 32 µg/mL
- MIC ([1]; P. aeruginosa P036, in combination with gemifloxacin, read-out: Cceftazidime MIC): 4 µg/mL
- MIC ([1]; P. aeruginosa P039, drug alone, read-out: ceftazidime MIC): 8 µg/mL
- MIC ([1]; P. aeruginosa P039, in combination with gemifloxacin, read-out: Cceftazidime MIC): 2 µg/mL
- MIC ([2]; P. aeruginosa 6140, drug alone, read-out: ceftazidime MIC): 32 µg/mL
- MIC ([2]; P. aeruginosa 6140, in combination with gemifloxacin, read-out: Cceftazidime MIC): 8 µg/mL
- MIC ([2]; P. aeruginosa 6168, drug alone, read-out: ceftazidime MIC): 32 µg/mL
- MIC ([2]; P. aeruginosa 6168, in combination with gemifloxacin, read-out: Cceftazidime MIC): 2 µg/mL
- MIC ([2]; P. aeruginosa P003, drug alone, read-out: ceftazidime MIC): 32 µg/mL
- MIC ([2]; P. aeruginosa P003, in combination with gemifloxacin, read-out: Cceftazidime MIC): 2 µg/mL
SMILES: CC(C)(O/N=C(\C(=O)N[C@@H]1C(=O)N2C(C(=O)[O-])=C(C[n+]3ccccc3)CS[C@H]12)c1csc(N)n1)C(=O)O [ceftazidime]
- FICB ([1]; P. aeruginosa 6003): 0.25
- FICB ([1]; P. aeruginosa 6021): 0.25
- FICB ([1]; P. aeruginosa 6030): 0.25
- FICB ([1]; P. aeruginosa 6045): 0.13
- FICB ([1]; P. aeruginosa 6047): 0.03
- FICB ([1]; P. aeruginosa 6113): 0.25
- FICB ([1]; P. aeruginosa 6123): 0.25
- FICB ([1]; P. aeruginosa 6173): 0.25
- FICB ([1]; P. aeruginosa P032): 0.25
- FICB ([1]; P. aeruginosa P036): 0.13
- FICB ([1]; P. aeruginosa P039): 0.25
- FICB ([2]; P. aeruginosa 6140): 0.25
- FICB ([2]; P. aeruginosa 6168): 0.06
- FICB ([2]; P. aeruginosa P003): 0.06
